Data as given in US10034915B2, “Small heat shock proteins and active fragments thereof as a therapy for inflammation and ischemia” (The Board of Trustees of the Leland Stanford Junior …, priority 2011, dated 2018).
Entries after “also recorded” stand apart in the source; their conditions may differ.

What was measured:
HSPB5−/− EAE mice = experiment: EAE in 129Sv HSPB5−/− mice immunized with MOG35-55/CFA; type: in vivo, mouse
Description: Efficacy of HSPB5 73-92 in EAE in HSPB5 deficient mice. We tested whether HSPB5 73-92 alone was sufficient to rescue EAE in alpha B crystallin deficient (HSPB5−/−) mice.
EAE induction and scoring. Mice were immunized subcutaneously with 100 μL of myelin oligodendrocyte glycoprotein (MOG) peptide 35-55 (2 mg/mL) and Complete Freund's adjuvant (CFA) (4 mg/mL) on Day 0. […] […] Mice were scored every day on a clinical scoring system: 0, healthy mouse; 1, limp tail; 2, weak hindlimbs; 3, complete hindlimb paralysis; 4, weak forelimbs and paralyzed hindlimbs; 5, dead.

[1] = test system: pro-inflammatory cytokines of MOG stimulated splenocytes; experiment: Peripheral immune cell activation: cytokine production by MOG stimulated splenocytes of treated MOG immunized mice (ELISA); design: species or system mouse; settings: mice treated in vivo; splenocytes from MOG immunized mice
Description: Peripheral immune cell activation and cytokine analysis. Spleens and lymph nodes were isolated from mice 9 days after immunization with MOG35-55 and CFA. Spleens were mechanically disrupted to isolate single cell splencytes suspension. Cells were cultured in flat bottomed, 96-well plates in media (RPMI 1640 supplemented with […] L-glutamine, 1 mM sodium pyruvate, 0.1 mM non-essential amino acids, 100 U/mL penicillin, 0.1 mg/mL streptomycin, 0.5 uM 2-mercaptoethanol, and 10% fetal calf serum). Cells were stimulated with MOG35-55 (5 ug/mL, 10 ug/mL, and 20 ug/mL). For all activation assays, splenocytes were pooled from three mice per group and triplicate wells were plated. Supernatants of cells were collected at the time of peak production for each cytokine (48 hrs: IL-2, IL-12p40, IL-6; 72 hrs: TNFα and IFNγ; 96 hrs: IL-17; 120 hrs: IL-10). Cytokines were measured in the supernatants using anti-mouse OPTEIA ELISA kits (BD Pharmingen for IFNγ, IL-10, IL-2, IL-6, and IL-12p40; R&D Systems for IL-17 and TNFα).

EAE mice [2] = experiment: EAE in 129Sv WT mice immunized with MOG35-55/CFA, clinical scoring; type: in vivo, mouse; settings: prevention paradigm
[3] = test system: partially denatured proteins; settings: in vitro, literature; cited from earlier work
EAE mice [4] = experiment: EAE in 129Sv WT mice immunized with MOG35-55/CFA, clinical scoring; type: in vivo, mouse; settings: peptide every other day from peak of disease (10 μg, or 1 μg equimolar to 10 μg protein)
Description: To investigate if the therapeutic efficacy of HSPB5 is a common feature of the whole family of small heat shock proteins, we expressed recombinant HSPB1, HSPB4, and HSPB5. We then treated EAE mice every other day starting at the peak of disease, when clinical paralysis is apparent, with an intraperitoneal (IP) administration of 10 μg of either HSPB1, HSPB4, HSPB5, or PBS as the vehicle control. […] Treating mice in vivo with HSPB1, HSPB4, or HSPB5 led to a reduction in the production of pro-inflammatory cytokines by MOG stimulated splenocytes taken from MOG immunized mice (FIG. 1c). Improvement of the clinical score was dependent on continued dosing of the sHSP. After dosing was stopped, symptoms returned, and paralysis worsened after 96 hours.
Therapeutic Peptides from HSPB5 in EAE. […] We made a series of overlapping, 15-mer peptide fragments of HSPB5 and treated mice at the peak of disease with 10 μg of each peptide every other day, using HSPB5 as a positive control and PBS as a negative control.
EAE induction and scoring. Mice were immunized subcutaneously with 100 μL of myelin oligodendrocyte glycoprotein (MOG) peptide 35-55 (2 mg/mL) and Complete Freund's adjuvant (CFA) (4 mg/mL) on Day 0. […] Mice were randomized at the peak of disease into the treatment groups where they received 10 ug/200 μL of sHSP, 1 μg/200 uL of sHSP peptide, or 200 μL of PBS (vehicle) every other day. Mice were scored every day on a clinical scoring system: 0, healthy mouse; 1, limp tail; 2, weak hindlimbs; 3, complete hindlimb paralysis; 4, weak forelimbs and paralyzed hindlimbs; 5, dead.

## DRFSVNLDVKHFSPEELKVK [HSPB5 73-92]
HSPB5−/− EAE mice; 10 ug peptide every other day from peak of disease
  disease scores: lower disease scores; also recorded: sufficient to ameliorate disease
HSPB5−/− EAE mice; treatment from Day 0
  incidence of disease, Day 11: 0%
  incidence of disease, Day 12: 0%
  incidence of disease, Day 13: 11%
  incidence of disease, Day 14: 33%
  incidence of disease, Day 15: 33%
  incidence of disease, Day 16: 33%
  incidence of disease, Day 17: 66%
  incidence of disease, Day 18: 66%
HSPB5−/− EAE mice; treatment from Day 0, vs PBS
  EAE clinical scores: ameliorated EAE
  onset of disease: delayed onset of disease
HSPB5−/− EAE mice; treatment from Day 0, vs PBS, listed as B5 73-92
  EAE clinical scores: lower EAE clinical scores
[1]
  production of pro-inflammatory cytokines by MOG stimulated splenocytes: decrease peripheral immune activation
EAE mice [2]; 10 μg peptide every day from Day 0
  disease severity: ameliorated EAE
EAE mice [2]; 10 μg peptide every day from Day 0, listed as B5 73-92
  disease severity: lower disease severity
EAE mice [2]; treatment from Day 0
  onset of disease: delayed onset of disease
[3]
  molecular chaperone activity: important for molecular chaperone activity
EAE mice [4]
  therapeutic efficacy of peptide in EAE (clinical scores): comparably therapeutic; also recorded: as therapeutic as HSPB5 71-85
